Assay results taken from patent US7371766B2, “Curcumin analogs with anti-tumor and anti-angiogenic properties” (Emory University, priority 1999, dated 2008).

Tests used:
[1] = test system: K-562; assay: cells; conditions: Homo sapiens, K562, 48 h; for GI50: read-out: Median Growth Inhibitory Concentration (GI50); for CC50: read-out: Median Lethal Concentration (LC50)
[2] = test system: MOLT-4; assay: cells; conditions: Homo sapiens, MOLT-4, 48 h; for GI50: read-out: Median Growth Inhibitory Concentration (GI50); for CC50: read-out: Median Lethal Concentration (LC50)
[3] = test system: RPMI-8226; assay: cells; conditions: Homo sapiens, RPMI-8226, 48 h; for GI50: read-out: Median Growth Inhibitory Concentration (GI50)
[4] = test system: HOP-62; assay: cells; conditions: Homo sapiens, HOP-62, 48 h; for GI50: read-out: Median Growth Inhibitory Concentration (GI50)
[5] = test system: NCI-H460; assay: cells; conditions: Homo sapiens, NCI-H460, 48 h; for GI50: read-out: Median Growth Inhibitory Concentration (GI50); for CC50: read-out: Median Lethal Concentration (LC50)
[6] = test system: HCT-15; assay: cells; conditions: Homo sapiens, HCT-15, 48 h; for GI50: read-out: Median Growth Inhibitory Concentration (GI50); for CC50: read-out: Median Lethal Concentration (LC50)
[7] = test system: HT29; assay: cells; conditions: Homo sapiens, HT-29, 48 h; for GI50: read-out: Median Growth Inhibitory Concentration (GI50); for CC50: read-out: Median Lethal Concentration (LC50)
[8] = test system: SF-268; assay: cells; conditions: Homo sapiens, SF-268, 48 h; for GI50: read-out: Median Growth Inhibitory Concentration (GI50); for CC50: read-out: Median Lethal Concentration (LC50)
[9] = test system: SF-295; assay: cells; conditions: Homo sapiens, SF-295, 48 h; for GI50: read-out: Median Growth Inhibitory Concentration (GI50); for CC50: read-out: Median Lethal Concentration (LC50)
[10] = test system: LOX IMVI; assay: cells; conditions: Homo sapiens, 48 h; for GI50: read-out: Median Growth Inhibitory Concentration (GI50)
[11] = test system: MALME-3M; assay: cells; conditions: Homo sapiens, 48 h; for GI50: read-out: Median Growth Inhibitory Concentration (GI50); for CC50: read-out: Median Lethal Concentration (LC50)
[12] = test system: SK-MEL-28; assay: cells; conditions: Homo sapiens, SK-MEL-28, 48 h; for GI50: read-out: Median Growth Inhibitory Concentration (GI50); for CC50: read-out: Median Lethal Concentration (LC50)
[13] = test system: UACC-62; assay: cells; conditions: Homo sapiens, UACC-62, 48 h; for GI50: read-out: Median Growth Inhibitory Concentration (GI50); for CC50: read-out: Median Lethal Concentration (LC50)
[14] = test system: IGROV1; assay: cells; conditions: Homo sapiens, IGROV-1, 48 h; for GI50: read-out: Median Growth Inhibitory Concentration (GI50); for CC50: read-out: Median Lethal Concentration (LC50)
[15] = test system: OVCAR-3; assay: cells; conditions: Homo sapiens, OVCAR-3, 48 h; for GI50: read-out: Median Growth Inhibitory Concentration (GI50); for CC50: read-out: Median Lethal Concentration (LC50)
[16] = test system: OVCAR-4; assay: cells; conditions: Homo sapiens, OVCAR-4, 48 h; for GI50: read-out: Median Growth Inhibitory Concentration (GI50); for CC50: read-out: Median Lethal Concentration (LC50)
[17] = test system: OVCAR-5; assay: cells; conditions: Homo sapiens, OVCAR-5, 48 h; for GI50: read-out: Median Growth Inhibitory Concentration (GI50); for CC50: read-out: Median Lethal Concentration (LC50)
[18] = test system: OVCAR-8; assay: cells; conditions: Homo sapiens, OVCAR-8, 48 h; for GI50: read-out: Median Growth Inhibitory Concentration (GI50); for CC50: read-out: Median Lethal Concentration (LC50)
[19] = test system: A498; assay: cells; conditions: Homo sapiens, A498, 48 h; for GI50: read-out: Median Growth Inhibitory Concentration (GI50); for CC50: read-out: Median Lethal Concentration (LC50)
[20] = test system: ACHN; assay: cells; conditions: Homo sapiens, 48 h; for GI50: read-out: Median Growth Inhibitory Concentration (GI50); for CC50: read-out: Median Lethal Concentration (LC50)
[21] = test system: CAKI-1; assay: cells; conditions: Homo sapiens, CAKI-1, 48 h; for GI50: read-out: Median Growth Inhibitory Concentration (GI50); for CC50: read-out: Median Lethal Concentration (LC50)
[22] = test system: RXF 393; assay: cells; conditions: Homo sapiens, RXF 393, 48 h; for GI50: read-out: Median Growth Inhibitory Concentration (GI50); for CC50: read-out: Median Lethal Concentration (LC50)
[23] = test system: SN12C; assay: cells; conditions: Homo sapiens, 48 h; for GI50: read-out: Median Growth Inhibitory Concentration (GI50); for CC50: read-out: Median Lethal Concentration (LC50)
[24] = test system: UO-31; assay: cells; conditions: Homo sapiens, UO-31, 48 h; for GI50: read-out: Median Growth Inhibitory Concentration (GI50); for CC50: read-out: Median Lethal Concentration (LC50)
[25] = test system: PC-3; assay: cells; conditions: Homo sapiens, PC-3, 48 h; for GI50: read-out: Median Growth Inhibitory Concentration (GI50); for CC50: read-out: Median Lethal Concentration (LC50)
[26] = test system: DU-145; assay: cells; conditions: Homo sapiens, DU-145, 48 h; for GI50: read-out: Median Growth Inhibitory Concentration (GI50); for CC50: read-out: Median Lethal Concentration (LC50)
[27] = test system: NCI/ADR-RES; assay: cells; conditions: Homo sapiens, 48 h; for GI50: read-out: Median Growth Inhibitory Concentration (GI50); for CC50: read-out: Median Lethal Concentration (LC50)
[28] = test system: MDA-N; assay: cells; conditions: Homo sapiens, 48 h; for GI50: read-out: Median Growth Inhibitory Concentration (GI50); for CC50: read-out: Median Lethal Concentration (LC50)
[29] = test system: BT-549; assay: cells; conditions: Homo sapiens, BT-549, 48 h; for GI50: read-out: Median Growth Inhibitory Concentration (GI50); for CC50: read-out: Median Lethal Concentration (LC50)
[30] = test system: Vascular Endothelial Growth Factor (VEGF) production by human melanoma cell line RPMI-7951; assay: VEGF ELISA, RPMI-7951; conditions: for activity at 20 µM / activity at 5 µM: Homo sapiens, RPMI-7951, 72 h, read-out: VEGF; for VEGF ELISA / VEGF: RPMI-7951; for VEGF ELISA: DMSO control 3713
[31] = read-out: Median Lethal Concentration (LC50)
[32] = 5 μM, DMSO control 4197 (EF-25: 1045)

CC1(/C=C/c2ccccc2O)C=Cc2ccccc2O1 (stereo not shown) [EF7]
GI50 [1]: 14.9 µM
CC50 [1]: 70.7 µM
GI50 [2]: 7.7 µM
CC50 [2]: 64.7 µM
GI50 [3]: 14.8 µM
CC50 [3, 31]: 92.7 µM
GI50 [4]: 16.3 µM
CC50 [4, 31]: 63.1 µM
GI50 [5]: 17.6 µM
CC50 [5]: 66.8 µM
GI50 [6]: 17.2 µM
CC50 [6]: 68.9 µM
GI50 [7]: 17.8 µM
CC50 [7]: 60.6 µM
GI50 [8]: 19.8 µM
CC50 [8]: > 100 µM
GI50 [9]: 15.5 µM
CC50 [9]: 55.1 µM
GI50 [10]: 17.2 µM
CC50 [10, 31]: 73.4 µM
GI50 [11]: 17.5 µM
CC50 [11]: 68.8 µM
GI50 [12]: 17.4 µM
CC50 [12]: 62.9 µM
GI50 [13]: 12.2 µM
CC50 [13]: 49.6 µM
GI50 [14]: 15.9 µM
CC50 [14]: 60.9 µM
GI50 [15]: 15.6 µM
CC50 [15]: 54.5 µM
GI50 [16]: 14.1 µM
CC50 [16]: 53.1 µM
GI50 [17]: 16.7 µM
CC50 [17]: 58.4 µM
GI50 [18]: 17 µM
CC50 [18]: 86.4 µM
GI50 [19]: 17.2 µM
CC50 [19]: 55.6 µM
GI50 [20]: 15.7 µM
CC50 [20]: 54 µM
GI50 [21]: 14.3 µM
CC50 [21]: 52.3 µM
GI50 [22]: 11 µM
CC50 [22]: 49.2 µM
GI50 [23]: 15.2 µM
CC50 [23]: 54.4 µM
GI50 [24]: 13.5 µM
CC50 [24]: 51.3 µM
GI50 [25]: 17.2 µM
CC50 [25]: 55.6 µM
GI50 [26]: 16.4 µM
CC50 [26]: 54.8 µM
GI50 [27]: 19.3 µM
CC50 [27]: > 100 µM
GI50 [28]: 16.1 µM
CC50 [28]: 56.9 µM
GI50 [29]: 17.1 µM
CC50 [29]: 56.8 µM
activity at 20 µM [30]: 27%

COc1cc(/C=C/C(=O)CC(=O)/C=C/c2ccc(O)c(OC)c2)ccc1O [Curcumin]
GI50 [1]: 3.2 µM
CC50 [1]: < 100 µM
GI50 [2]: 5 µM
CC50 [2]: 79.4 µM
GI50 [3]: 2 µM
GI50 [4]: 4 µM
GI50 [5]: 7.9 µM
CC50 [5]: 63.1 µM
GI50 [6]: 4 µM
CC50 [6]: 79.4 µM
GI50 [7]: 5 µM
CC50 [7]: < 100 µM
GI50 [8]: 6.3 µM
CC50 [8]: < 100 µM
GI50 [9]: 7.9 µM
CC50 [9]: 50.1 µM
GI50 [10]: 2.5 µM
GI50 [11]: 12.6 µM
CC50 [11]: 50.1 µM
GI50 [12]: 5 µM
CC50 [12]: 50.1 µM
GI50 [13]: 6.3 µM
CC50 [13]: 50.1 µM
GI50 [14]: 7.9 µM
CC50 [14]: 79.4 µM
GI50 [15]: 6.3 µM
CC50 [15]: 63.1 µM
GI50 [16]: 10 µM
CC50 [16]: < 100 µM
GI50 [17]: 15.8 µM
CC50 [17]: 79.4 µM
GI50 [18]: 7.9 µM
CC50 [18]: 79.4 µM
GI50 [19]: 15.8 µM
CC50 [19]: 63.1 µM
GI50 [20]: 12.6 µM
CC50 [20]: 63.1 µM
GI50 [21]: 12.6 µM
CC50 [21]: 50.1 µM
GI50 [22]: 3.2 µM
CC50 [22]: 50.1 µM
GI50 [23]: 7.9 µM
CC50 [23]: 63.1 µM
GI50 [24]: 12.6 µM
CC50 [24]: 50.1 µM
GI50 [25]: 7.9 µM
CC50 [25]: 63.1 µM
GI50 [26]: 15.8 µM
CC50 [26]: 63.1 µM
GI50 [27]: 7.9 µM
CC50 [27]: < 100 µM
GI50 [28]: 2.5 µM
CC50 [28]: 31.6 µM
GI50 [29]: 5 µM
CC50 [29]: 39.8 µM
activity at 5 µM [30]: 98%
activity at 20 µM [30]: 5%
VEGF ELISA ([30]; 5 μM): 3989 pg/ml/well
VEGF [30, 32]: 4111 pg/mL
VEGF ELISA ([30]; 20 μM): 714 pg/ml/well
VEGF ([30]; 20 μM, DMSO control 4197): 221 pg/mL

O=C1C(=Cc2ccccc2O)CCCC1=Cc1ccccc1O [EF4, 2,6Bis(2-hydroxybenzylidene)cyclohexanone]
GI50 [1]: 2.5 µM
CC50 [1]: 91.4 µM
GI50 [2]: 2.2 µM
CC50 [2]: 69.5 µM
GI50 [3]: 0.6 µM
GI50 [4]: 2.9 µM
GI50 [5]: 2.3 µM
CC50 [5]: 40.2 µM
GI50 [6]: 2.2 µM
CC50 [6]: > 100 µM
GI50 [7]: 2.2 µM
CC50 [7]: 29.1 µM
GI50 [8]: 3 µM
CC50 [8]: 53.2 µM
GI50 [9]: 3.4 µM
CC50 [9]: 79.5 µM
GI50 [10]: 2.2 µM
GI50 [11]: 2.3 µM
CC50 [11]: 24.3 µM
GI50 [12]: 2.9 µM
CC50 [12]: 33.8 µM
GI50 [13]: 1.5 µM
CC50 [13]: 6.1 µM
GI50 [14]: 2.9 µM
CC50 [14]: 43.9 µM
GI50 [15]: 3.7 µM
CC50 [15]: 40.7 µM
GI50 [16]: 2.5 µM
CC50 [16]: 18.4 µM
GI50 [17]: 2.6 µM
CC50 [17]: 55.9 µM
GI50 [18]: 2.9 µM
CC50 [18]: > 100 µM
GI50 [19]: 2.2 µM
CC50 [19]: 16.2 µM
GI50 [20]: 3.3 µM
CC50 [20]: 32.7 µM
GI50 [21]: 3.1 µM
CC50 [21]: > 100 µM
GI50 [22]: 0.5 µM
CC50 [22]: 30.8 µM
GI50 [23]: 2.3 µM
CC50 [23]: 21.5 µM
GI50 [24]: 1.6 µM
CC50 [24]: 6.2 µM
GI50 [25]: 2.1 µM
CC50 [25]: 28.6 µM
GI50 [26]: 1.4 µM
CC50 [26]: 7 µM
GI50 [27]: 2.7 µM
CC50 [27]: > 100 µM
GI50 [28]: 1.6 µM
CC50 [28]: 20.2 µM
GI50 [29]: 2.4 µM
CC50 [29]: 26.1 µM
activity at 5 µM [30]: 70%
activity at 20 µM [30]: 0%
VEGF ELISA ([30]; 5 μM): 2159 pg/ml/well
VEGF [30, 32]: 2920 pg/mL
VEGF ELISA ([30]; 20 μM): 199 pg/ml/well
VEGF ([30]; 20 μM, DMSO control 4197): 0 pg/mL
